Test [1] concerns Mtb strain 028 K111. Description: microbe, parasite or virus in culture. The format is cell-based. The conditions noted are these: Mycobacterium tuberculosis.
Test [2] relates to Mtb strain K03b00DS. The test is described as follows: MIC determination against Mtb K03b00DS (DS). As to conditions: Mycobacterium tuberculosis. The format is cell-based.
Test [3] concerns the target T1, CYP125 (Mycobacterium tuberculosis, UniProt P9WPP1).
T1 construct: encoding residues 18-433; twin-strep hexahistidine tag (TEV-cleavable) (N, cleaved yes); made in house; host or cells: E. coli C41(DE3), pET21a
T1 sequence (P9WPP1 18-433 limits assumed): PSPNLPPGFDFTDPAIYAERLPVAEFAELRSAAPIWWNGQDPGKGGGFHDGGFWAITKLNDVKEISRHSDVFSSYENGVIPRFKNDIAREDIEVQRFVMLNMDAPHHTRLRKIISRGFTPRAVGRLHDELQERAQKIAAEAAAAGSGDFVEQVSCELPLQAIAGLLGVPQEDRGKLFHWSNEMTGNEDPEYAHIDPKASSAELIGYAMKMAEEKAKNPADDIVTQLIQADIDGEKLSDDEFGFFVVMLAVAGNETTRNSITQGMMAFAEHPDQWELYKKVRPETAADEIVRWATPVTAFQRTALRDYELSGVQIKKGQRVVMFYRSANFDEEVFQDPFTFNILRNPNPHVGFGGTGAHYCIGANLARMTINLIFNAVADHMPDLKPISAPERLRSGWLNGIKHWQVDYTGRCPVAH
The test is described as follows: biochemical. The format is binding. As to conditions: UV-Vis spectroscopy.

In test [4] the test system is Mtb strain KB019. The test is described as follows: microbe, parasite or virus in culture. The format is cell-based. The conditions noted are these: Mycobacterium tuberculosis.
The test system of test [5] is Mtb strain NIH_G269DR. Description: microbe, parasite or virus in culture. The format is cell-based. As to conditions: Mycobacterium tuberculosis.
In test [6] the target is T2, CYP142 (Mycobacterium tuberculosis, UniProt P9WPL5).
T2 sequence (P9WPL5 2-398): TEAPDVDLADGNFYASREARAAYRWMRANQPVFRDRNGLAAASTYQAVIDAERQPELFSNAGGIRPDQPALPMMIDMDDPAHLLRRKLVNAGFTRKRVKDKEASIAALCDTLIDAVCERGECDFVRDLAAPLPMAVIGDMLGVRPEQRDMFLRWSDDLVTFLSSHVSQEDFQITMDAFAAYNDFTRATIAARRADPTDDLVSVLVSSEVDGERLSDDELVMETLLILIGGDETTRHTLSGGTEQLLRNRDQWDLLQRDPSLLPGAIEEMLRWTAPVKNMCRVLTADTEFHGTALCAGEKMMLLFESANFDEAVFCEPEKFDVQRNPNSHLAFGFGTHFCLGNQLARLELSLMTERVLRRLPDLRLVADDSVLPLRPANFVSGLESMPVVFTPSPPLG
Description: biochemical. As to conditions: UV-Vis spectroscopy.

In test [7] the test system is Mtb H37Rv (ATCC 27294). The test is described as follows: MIC determination against Mtb H37Rv. The format is cell-based, Mycobacterium tuberculosis.
The test system of test [8] is Mtb strain 53 K113. The test is described as follows: microbe, parasite or virus in culture. The format is cell-based. The conditions noted are these: Mycobacterium tuberculosis.
Test [9] deals with Mtb strain K18b01MR. The test is described as follows: microbe, parasite or virus in culture. The format is cell-based. The conditions noted are these: Mycobacterium tuberculosis.
Test [10] relates to Mtb strain CDC1551. The test is described as follows: MIC determination against Mtb CDC1551 (clinical strain). The format is cell-based. The conditions noted are these: Mycobacterium tuberculosis.
For test [11], the target named is T2, CYP142. The conditions noted are these: read-out: KD (CYP142); UV-Vis spectroscopy.
[12] abbreviates: Mycobacterium tuberculosis, 168 h, Table S1, H37Rv, […], 1 Week.
[13] abbreviates: Mycobacterium tuberculosis, 336 h.
Where [14] appears, read: Mycobacterium tuberculosis, 168 h.

The structures appear in SMILES notation. ≈ marks a conversion by molar mass, not a printed value. Read-outs that look alike come from different tables or passages of the source.

With `Cc1nnc(-c2cc3cc(-c4ccncc4)ccc3n2CCC2CCNCC2)o1` [Compound 18], the MIC is 50 µM (≈ 19.4 µg/mL) in test [1] (028K111, 168 h); above 50 µM in test [1] (028K111, 336 h); 50 µM (≈ 19.4 µg/mL) in test [2] (168 h); 50 µM (≈ 19.4 µg/mL) in test [2] (336 h); above 50 µM in [4] (KB019, 168 h); 50 µM (≈ 19.4 µg/mL) in [4] (KB019, 336 h). Also, the MIC is above 50 µM in test [5] (168 h); above 50 µM in test [5] (336 h); 25 µM (≈ 9.69 µg/mL) in test [7] (setting [12]); above 50 µM in [7] (setting [13]); 50 µM (≈ 19.4 µg/mL) in test [7] (Mycobacterium tuberculosis, 336 h, Table S1, H37Rv, […], 2 Week); above 50 µM in test [7] (Table S1, H37Rv, […], 1 Week). The MIC in [8] (53K113, 168 h) is 50 µM (≈ 19.4 µg/mL); in test [8] (53K113, 336 h), above 50 µM; in test [9] (168 h), 50 µM (≈ 19.4 µg/mL); in [9] (336 h) it was 50 µM (≈ 19.4 µg/mL); in test [10] (168 h) it was 50 µM (≈ 19.4 µg/mL); in [10] (336 h) it was 50 µM (≈ 19.4 µg/mL). In addition, the dissociation constant (Kd) – broadly, the constant that tells how readily two partners part at equilibrium – in test [3] is 10.2 ± 0.1 µM; in test [6], 0.99 ± 0.1 µM.

As to `CCOC(=O)c1cc2cc(-c3ccncc3)ccc2n1CC1CCCC1` [Compound 8], the results for the Kd in [3] and in [6] were 0.3 ± 0.06 µM and 0.06 ± 0.01 µM, respectively.

As for `CCOC(=O)c1cc2cc(-c3ccncc3)ccc2n1CCC1CCNCC1` [Compound 10], the Kd in test [3] was found to be 5 ± 0.2 µM; in test [6], 0.39 ± 0.06 µM.

In the case of `CCOC(=O)c1cc2cc(-c3ccncc3)ccc2n1CC1CCNCC1` [Compound 11], the Kd came out at 14.8 ± 0.9 µM in test [3] and 0.71 ± 0.09 µM in [6].

Take `Cc1noc(-c2cc3cc(-c4ccncc4)ccc3n2CCC2CCNCC2)n1` [Compound 16]: the MIC in test [1] (028K111, 168 h) was determined as 6.25 µM (≈ 2.42 µg/mL); in [1] (028K111, 336 h) it was 6.25 µM (≈ 2.42 µg/mL); in test [2] (168 h), 6.25 µM (≈ 2.42 µg/mL); in test [2] (336 h), 6.25 µM (≈ 2.42 µg/mL); in [4] (KB019, 168 h) it was 9.4 µM (≈ 3.64 µg/mL); in test [4] (KB019, 336 h), 12.5 µM (≈ 4.84 µg/mL). Further, the MIC came out at 6.25 µM (≈ 2.42 µg/mL) in [5] (168 h); 9.4 µM (≈ 3.64 µg/mL) in [5] (336 h); 4.7 µM (≈ 1.82 µg/mL) in test [7] (setting [14]); 12.5 µM (≈ 4.84 µg/mL) in test [7] (setting [13]); 6.25 µM (≈ 2.42 µg/mL) in test [8] (53K113, 168 h); 6.25 µM (≈ 2.42 µg/mL) in [8] (53K113, 336 h). The MIC in test [9] (168 h), in test [9] (336 h), in test [10] (168 h) and in [10] (336 h) was 6.25 µM (≈ 2.42 µg/mL) each time. In addition, the values for the Kd in test [3] and in [6] were above 100 µM and 0.39 ± 0.05 µM, respectively.

With `COc1ccc(-c2ccncc2)cc1` [Compound 2], the dissociation constant Kd in [3] was determined as 58.5 ± 3.8 µM; in test [6], 1.6 ± 0.1 µM.

As for `CCOC(=O)c1cc2cc(-c3ccncc3)ccc2n1Cc1ccccc1` [Compound 5], the Kd in test [3] is 0.65 ± 0.06 µM; in test [6] it was 0.04 ± 0.01 µM.

For the compound `CCCC(=O)c1cc2cc(-c3ccncc3)ccc2n1CCC1CCNCC1` [Compound 19], the MIC is 6.25 µM (≈ 2.35 µg/mL) in [1] (028K111, 168 h); 6.25 µM (≈ 2.35 µg/mL) in test [1] (028K111, 336 h); 4.7 µM (≈ 1.76 µg/mL) in test [2] (168 h); 4.7 µM (≈ 1.76 µg/mL) in [2] (336 h); 12.5 µM (≈ 4.69 µg/mL) in [4] (KB019, 168 h); 19 µM (≈ 7.13 µg/mL) in test [4] (KB019, 336 h). For the same compound, the MIC in test [5] (168 h) came out at 6.25 µM (≈ 2.35 µg/mL); in [5] (336 h), 6.25 µM (≈ 2.35 µg/mL); in test [7], 9.4 µM (≈ 3.53 µg/mL); in test [7] (setting [14]) it was 6.25 µM (≈ 2.35 µg/mL); in [7] (setting [12]), 9.4 µM (≈ 3.53 µg/mL); in test [7] (setting [13]), 12.5 µM (≈ 4.69 µg/mL). The MIC in test [7] (Table S1, H37Rv, […], 1 Week) turned out to be 12.5 µM (≈ 4.69 µg/mL); in [8] (53K113, 168 h) it was 6.25 µM (≈ 2.35 µg/mL); in test [8] (53K113, 336 h) it was 6.25 µM (≈ 2.35 µg/mL); in test [9] (168 h), 6.25 µM (≈ 2.35 µg/mL); in test [9] (336 h) it was 6.25 µM (≈ 2.35 µg/mL); in test [10] (168 h), 6.25 µM (≈ 2.35 µg/mL). This compound came in with an MIC in test [10] (336 h) of 6.25 µM (≈ 2.35 µg/mL). Further, the dissociation constant (Kd) in test [3] was found to be 3.6 ± 0.2 µM; in [11], 0.23 ± 0.05 µM.

For `Cc1cnc(-c2cc3cc(-c4ccncc4)ccc3n2CCC2CCNCC2)o1` [Compound 17], the MIC in [1] (028K111, 168 h) worked out at 6.25 µM (≈ 2.42 µg/mL); in [1] (028K111, 336 h), 6.25 µM (≈ 2.42 µg/mL); in [2] (168 h) it was 4.7 µM (≈ 1.82 µg/mL); in [2] (336 h), 4.7 µM (≈ 1.82 µg/mL); in [4] (KB019, 168 h) it was 12.5 µM (≈ 4.83 µg/mL); in [4] (KB019, 336 h) it was 19 µM (≈ 7.34 µg/mL). Further, the MIC in [5] (168 h) turned out to be 6.25 µM (≈ 2.42 µg/mL); in [5] (336 h), 6.25 µM (≈ 2.42 µg/mL); in test [7] (setting [13]), 19 µM (≈ 7.34 µg/mL); in test [8] (53K113, 168 h) it was 6.25 µM (≈ 2.42 µg/mL); in [8] (53K113, 336 h) it was 6.25 µM (≈ 2.42 µg/mL); in test [9] (168 h), 6.25 µM (≈ 2.42 µg/mL). The MIC in test [9] (336 h), in test [10] (168 h) and in [10] (336 h) was 6.25 µM (≈ 2.42 µg/mL) in each case. In addition, the Kd in test [3] was found to be 5.3 ± 0.2 µM; in test [6], 0.79 ± 0.05 µM.

On to `CCOC(=O)c1cc2cc(-c3ccncc3)ccc2n1CC1CCCCC1` [Compound 7], for which the Kd in test [3] worked out at 0.31 ± 0.03 µM; in [6], 0.05 ± 0.01 µM.

For `NC(=O)c1cc2cc(-c3ccncc3)ccc2n1CCN1CCNCC1` [Compound 15], the results for the Kd in [3] and in test [6] were 48.8 ± 2.3 µM and 2.5 ± 0.2 µM, respectively.

On to `NC(=O)c1cc2cc(-c3ccncc3)ccc2n1CC1CCCCC1` [Compound 13], for which the Kd in test [3] turned out to be 0.45 ± 0.04 µM; in test [6], 0.03 ± 0.007 µM.

In the case of `c1cc(-c2ccc3c(ccn3CCN3CCNCC3)c2)ccn1` [Compound 14], the Kd in test [3] turned out to be 271 ± 13 µM; in test [6], 11.1 ± 0.5 µM.

As to `CCOC(=O)c1cc2cc(-c3ccncc3)ccc2[nH]1` [Compound 4, ethyl 5‐(pyridin‐4‐yl)‐1H‐indole‐2‐carboxylate], the figures for the Kd in test [3] and in [6] were 3 µM and 0.75 µM, respectively.

For `COC(=O)c1cccc(-c2ccncc2)c1` [Compound 3], the Kd was determined as 146 µM in test [3] and 1.5 µM in test [6].

In the case of `CCOC(=O)c1cc2cc(-c3ccncc3)ccc2n1CC1CCC1` [Compound 9], the Kd in test [3] came out at 1.1 ± 0.2 µM; in test [6], 0.09 ± 0.01 µM.

Regarding `NCc1ccc(-c2cnns2)cc1` [Compound 1], the Kd in test [3] was 57.7 µM; in [6], 0.61 µM.

For the compound `CCOC(=O)c1cc2cc(-c3ccncc3)ccc2n1C(=O)c1ccccc1` [Compound 6], the Kd in [3] turned out to be 0.12 ± 0.04 µM; in test [6], 0.42 ± 0.08 µM.

`NNC(=O)c1ccncc1` [Isoniazid, reference compound] showed an MIC in test [7] (setting [12]) of 0.15 µM (≈ 0.0206 µg/mL).

On to `CCOC(=O)c1cc2cc(-c3ccncc3)ccc2n1CCN1CCOCC1` [Compound 12], for which the values for the dissociation constant (Kd) in [3] and in [6] were 2.8 ± 0.1 µM and 1.1 ± 0.1 µM, respectively.

Source of the values: paper PMC10205683, “Structure Based Discovery of Inhibitors of CYP125 and CYP142 from Mycobacterium tuberculosis” (Chemistry (Weinheim an Der Bergstrasse, Germany), 2023).
